For experiment [1], the system named is hepatic GSH. The experiment can be described thus: Test No. 1: protection from ethanol acute administration, hepatic GSH content. On the set-up: GSH Content: unit not given beside the values. The settings on record: liver; ethanol 3 g/kg i.p.; test substance 50 mg/kg. It counts as in vivo, male albino Wistar rats. The protocol: Protection from ethanol acute administration […] Male albino Wistar rats weighing between 180 and 230 g were used. All animals were fasted for 24 hours prior to administration of isotonic solution, ethanol or ethanol combined with the test substances. As concerns the test substances, rats were intraperitoneally (i.p.) injected with compound of formula I (R=CH3) at doses of 10, 30, and 50 mg/kg and, for purposes of comparison, with the single constituents of compound (I) (R=CH3), […] (O-PRO) and L-cysteine (CIS), both at a 50 mg/kg dose. One hour after administration of the test substance, ethanol was injected i.p. at the dose of 3 g/kg. Thirty minutes later, the animals were sacrificed by decapitation and their liver was excised. […] Orwar et al., J. Chromatrogr., 556, 39-55 (1991).

For experiment [2], the system named is hepatic GSH. Put plainly: Test No. 4: dichloropropane (DCP) intoxication in vivo, hepatic GSH. On the set-up: species or system rat. Particulars: for normalization of hepatic GSH (in words): DCP-treated rats. On the procedure:
(§1) A test was carried out in vivo on four groups of four rats each, using, as a toxic substance, dichloropropane (DCP), the main constituent of several solvents. DCP is noxious both by ingestion and inhalation and has a notable toxicity to the liver, mediated by an almost total depletion of thiol groups, including those of GSH.
(§2) The experimental model involves the study of the effect of DCP toxicity in the rat, in respect of glutathione (GSH) concentration in the main target tissue: the liver.
(§3) Tests were carried out on four groups of rats. The first group of animals was administered 2 ml DCP/kg dissolved in oil (40% v/v) per os. Twenty-four hours after DCP administration, blood samples were taken for SGPT measurement, while the animals were sacrificed; small portions of liver were then excised and immediately deproteinized by homogenization in 6% PCA. The chromatographic analyses of GSH and GSSG (oxidized glutathione) were performed.
(§4) The second group of animals was treated with the test drug (600 mg/kg i.p.) two hours after DCP administration. The third and fourth groups were treated with N-acetyl-cysteine (NAC) (250 mg/kg i.p.) and, respectively, with glutathione (Tationil^R) (600 mg/kg i.p.).
An evaluation of the protective action of the test drug in respect of glutathione involvement in hepatic protection mechanisms was thus possible.

The subject of experiment [3] is DCP toxicity in the rat. The experiment can be described thus: Test No. 4: dichloropropane (DCP) intoxication in vivo, death rate and signs. On the set-up: key to animal 4, symbol in GSH table: --: dead. Particulars: DCP + 250 mg/kg i.p. The protocol:
as §1, §2, §3, §4

Several values for one entry are separate records, joined by “and”; a condition that tells them apart may be missing. Equal entries are not always repeated.

Consider `O=C1CC[C@@H](C(=O)O)N1` [O-PRO, 5-oxy-L-proline, reference compound], for which the “GSH Content” value in experiment [1] came to 3.4 ± 0.3.

On to `CC(=O)N[C@@H](CS)C(=O)O` [NAC, N-acetyl-L-cysteine, reference compound], for which, in experiment [2], the “normalization of hepatic GSH (in words)” value is “could not normalize the values of hepatic GSH”. For the same compound, the “GSH, average values” in experiment [2] (liver, DCP 2 ml/kg per os + 250 mg/kg i.p.) was 2.4 nmol/mg protein. Also, in experiment [2] (liver, DCP 2 ml/kg per os + 250 mg/kg i.p., animals 1-3, 250 mg/kg), the “GSH, individual animals” value was 2.0 nmol/mg protein and 2.9 nmol/mg protein and 2.3 nmol/mg protein. Also, the “animal 4, symbol in GSH table” value in experiment [3] is given as “--”.

In the case of `N[C@@H](CCC(=O)N[C@@H](CS)C(=O)NCC(=O)O)C(=O)O` [GSH, glutathione], the “normalization of hepatic GSH (in words)” value in experiment [2] was “could not normalize the values of hepatic GSH”. The “GSH Content” value in experiment [1] is 3.5 ± 0.6.

In the case of `N[C@@H](CS)C(=O)O` [CIS, L-cysteine, reference compound], in experiment [1], the “GSH Content” value is 2.7 ± 0.3.

The values are drawn from patent US5736565A, “Therapeutic compounds suitable for the treatment of diseases connected with glutathione deficiency, process for their preparation, and pharmaceutical compositions containing same” (Prospa B.V., priority 1992, dated 1998).
